Assay type in all cases: cell-based
The subject of one assay is E. coli DH5α. Description: Antibacterial activity: MIC and growth curve against E. coli DH5α in 96-well plate. Conditions: minimal inhibitory concentration against E. coli DH5α; 96-well plate, 5×10^5 CFU/mL, 37° C., judged after 8 h. In short, it runs like this:
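MIC taken as lowest protein level with no bacterial growth, tracked by A600 every 30 min during 37 °C, 175 rpm culture. Two-fold protein series 50-12.5 μg/mL final, triplicate wells, against 5×10^5 CFU/mL of LB-washed mid-log cells.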

The next assay deals with E. coli BL21. Description: MIC against Gram-negative bacteria: E. coli BL21. Conditions: 10 h cultivation at 37° C., 5×10^5 CFU/mL; for MIC E. coli BL21: two-fold serial dilution. In a few lines:
(§1)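 LB broth cultures at McFarland 0.5, spun down, resuspended, diluted to 5×10^5 CFU/mL final. Two-fold serial dilutions of purified human EGF domain proteins, triplicate. 37° C, 175 rpm shaking. Endpoint: no visible growth.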

The test system of a further assay is Pseudomonas aeruginosa. The assay is described as follows: MIC against Gram-negative bacteria: Pseudomonas aeruginosa. To be noted: 10 h cultivation at 37° C., 5×10^5 CFU/mL; for MIC P. aeruginosa: two-fold serial dilution. In a few lines: as §1
The next assay deals with Klebsiella pneumonia. The assay is described as follows: MIC against Gram-negative bacteria: Klebsiella pneumonia. To be noted: 10 h cultivation at 37° C., 5×10^5 CFU/mL; for MIC K. pneumonia: two-fold serial dilution. In short, it runs like this:
as §1

A further assay concerns Enterobacter cloacae. Description: MIC against Gram-negative bacteria: Enterobacter cloacae. Conditions: 10 h cultivation at 37° C., 5×10^5 CFU/mL; for MIC E. cloacae: two-fold serial dilution. In a few lines: as §1
A further assay concerns Aeromonas hydrophila. The assay is described as follows: MIC against Gram-negative bacteria: Aeromonas hydrophila. Conditions: 10 h cultivation at 37° C., 5×10^5 CFU/mL; for MIC A. hydrophila: two-fold serial dilution. In a few lines: as §1
A further assay deals with Citrobacter diversus. The assay is described as follows: MIC against Gram-negative bacteria: Citrobacter diversus. To be noted: 10 h cultivation at 37° C., 5×10^5 CFU/mL; for MIC C. diversus: two-fold serial dilution. In short, it runs like this: as §1
A further assay concerns Moraxella catarrhalis. The assay is described as follows: MIC against Gram-negative bacteria: Moraxella catarrhalis. To be noted: 10 h cultivation at 37° C., 5×10^5 CFU/mL; for MIC M. catarrhalis: two-fold serial dilution. In a few lines: as §1
The subject of another assay is Proteus mirabilis. The assay is described as follows: MIC against Gram-negative bacteria: Proteus mirabilis. Conditions: 10 h cultivation at 37° C., 5×10^5 CFU/mL; for MIC P. mirabilis: two-fold serial dilution. In a few lines:
as §1

The test system of a further assay is Proteus vulgaris. Description: MIC against Gram-negative bacteria: Proteus vulgaris. Conditions: 10 h cultivation at 37° C., 5×10^5 CFU/mL; for MIC P. vulgaris: two-fold serial dilution. In a few lines: as §1
The next assay deals with Serratia marcescens. Description: MIC against Gram-negative bacteria: Serratia marcescens. Conditions: 10 h cultivation at 37° C., 5×10^5 CFU/mL; for MIC S. marcescens: two-fold serial dilution. In a few lines: as §1

Regarding “PRT1146 (SIDNCAEPELNSVICLNGGICVDGPGHTFDCRCLPGFSGQFCE; listed as Homo sapiens)”, in the assay on E. coli DH5α, the MIC (in general, the smallest concentration in the dilution series that meets the test's criterion for growth inhibition) is 50 µg/mL. Further, in the assay on E. coli BL21, the “MIC E. coli BL21” value was found to be 25 µg/mL. For the same substance, the “MIC P. aeruginosa” value against Pseudomonas aeruginosa amounted to 12.5 µg/mL. For the same substance, the “MIC K. pneumonia” value against Klebsiella pneumonia was 25 µg/mL. Also, the “MIC E. cloacae” value with Enterobacter cloacae worked out at 50 µg/mL. Further, the “MIC A. hydrophila” value against Aeromonas hydrophila is 12.5 µg/mL. Also, the “MIC C. diversus” value in the assay with Citrobacter diversus worked out at 25 µg/mL. The “MIC M. catarrhalis” value with Moraxella catarrhalis came out at 50 µg/mL. The “MIC P. mirabilis” value against Proteus mirabilis came to 12.5 µg/mL. Moreover, the “MIC P. vulgaris” value against Proteus vulgaris stood at 50 µg/mL. In the assay with Serratia marcescens, the “MIC S. marcescens” value came out at 12.5 µg/mL.

“PRT1171 (NTNDCSPHPCYNSGTCVDGDNWYRCECAPGFAGPDCR; listed as Homo sapiens)”: the MIC against E. coli DH5α stood at 12.5 µg/mL. For the same substance, the “MIC E. coli BL21” value against E. coli BL21 turned out to be 12.5 µg/mL. Also, the “MIC P. aeruginosa” value with Pseudomonas aeruginosa is 25 µg/mL. Besides, in the assay on Klebsiella pneumonia, the “MIC K. pneumonia” value stood at 12.5 µg/mL. Besides, in the assay on Enterobacter cloacae, the “MIC E. cloacae” value came out at 12.5 µg/mL. For the same substance, the “MIC A. hydrophila” value in the assay with Aeromonas hydrophila stood at 12.5 µg/mL. For the same substance, the “MIC C. diversus” value in the assay on Citrobacter diversus was 12.5 µg/mL. Moreover, the “MIC M. catarrhalis” value against Moraxella catarrhalis came to 50 µg/mL. Moreover, the “MIC P. mirabilis” value against Proteus mirabilis turned out to be 12.5 µg/mL. In addition, the “MIC P. vulgaris” value against Proteus vulgaris came to 50 µg/mL. The “MIC S. marcescens” value against Serratia marcescens is 25 µg/mL.

In turn, “PRT1344 (DIDECSPLPCLNNGVCKDLVGEFICECPSGYTGQRCE; listed as Homo sapiens)” registered an MIC in the assay on E. coli DH5α of 12.5 µg/mL. Moreover, the “MIC against E. coli BL21” value against E. coli BL21 (E. coli BL21) came out at 50 µg/mL. In the assay on Pseudomonas aeruginosa (Pseudomonas aeruginosa), the “MIC against P. aeruginosa” value amounted to 25 µg/mL. For the same substance, the “MIC against K. pneumonia” value against Klebsiella pneumonia (Klebsiella pneumonia) was found to be 12.5 µg/mL. Moreover, in the assay with Enterobacter cloacae (Enterobacter cloacae), the “MIC against E. cloacae” value amounted to 25 µg/mL. Further, the “MIC against A. hydrophila” value in the assay with Aeromonas hydrophila (Aeromonas hydrophila) was 50 µg/mL. Besides, the “MIC against C. diversus” value in the assay on Citrobacter diversus (Citrobacter diversus) came out at 12.5 µg/mL. The “MIC against M. catarrhalis” value with Moraxella catarrhalis (Moraxella catarrhalis) worked out at 50 µg/mL. Also, the “MIC against P. mirabilis” value in the assay with Proteus mirabilis (Proteus mirabilis) came out at 12.5 µg/mL. Also, in the assay on Proteus vulgaris (Proteus vulgaris), the “MIC against P. vulgaris” value came to 50 µg/mL. For the same substance, in the assay on Serratia marcescens (Serratia marcescens), the “MIC against S. marcescens” value amounted to 25 µg/mL.

With “PRT211 (DIDECSYSSYLCQYRCVNEPGRFSCHCPQGYQ; listed as Homo sapiens)”, the MIC against E. coli DH5α was determined as 25 µg/mL. Also, the “MIC (μg/mL) E. coli BL21” value against E. coli BL21 (E. coli BL21) amounted to 12.5 µg/mL. The “MIC (μg/mL) P. aeruginosa” value with Pseudomonas aeruginosa was 25 µg/mL. Moreover, in the assay with Klebsiella pneumonia, the “MIC (μg/mL) K. pneumonia” value amounted to 12.5 µg/mL. In addition, the “MIC (μg/mL) E. cloacae” value with Enterobacter cloacae was 25 µg/mL. Besides, the “MIC (μg/mL) A. hydrophila” value in the assay on Aeromonas hydrophila came to 50 µg/mL. For the same substance, in the assay with Citrobacter diversus, the “MIC (μg/mL) C. diversus” value came out at 25 µg/mL. The “MIC (μg/mL) M. catarrhalis” value against Moraxella catarrhalis is 12.5 µg/mL. Further, the “MIC (μg/mL) P. mirabilis” value against Proteus mirabilis amounted to 25 µg/mL. In addition, in the assay with Proteus vulgaris, the “MIC (μg/mL) P. vulgaris” value came out at 50 µg/mL. Moreover, in the assay on Serratia marcescens, the “MIC (μg/mL) S. marcescens” value is 25 µg/mL.

Regarding “PRT221 (YTECTDGYEWDPDSQHCRDVNECLTIPEACKGEMKCINHYGGYLCL; listed as Homo sapiens)”, the MIC against E. coli DH5α amounted to 12.5 µg/mL. In the assay on E. coli BL21 (E. coli BL21), the “MIC (μg/mL) E. coli BL21” value came to 50 µg/mL. Also, in the assay with Pseudomonas aeruginosa, the “MIC (μg/mL) P. aeruginosa” value is 50 µg/mL. Also, the “MIC (μg/mL) K. pneumonia” value with Klebsiella pneumonia was 12.5 µg/mL. For the same substance, in the assay with Enterobacter cloacae, the “MIC (μg/mL) E. cloacae” value is 25 µg/mL. Moreover, the “MIC (μg/mL) A. hydrophila” value in the assay with Aeromonas hydrophila turned out to be 50 µg/mL. The “MIC (μg/mL) C. diversus” value against Citrobacter diversus amounted to 25 µg/mL. Also, the “MIC (μg/mL) M. catarrhalis” value against Moraxella catarrhalis came out at 12.5 µg/mL. The “MIC (μg/mL) P. mirabilis” value in the assay on Proteus mirabilis worked out at 25 µg/mL. In the assay with Proteus vulgaris, the “MIC (μg/mL) P. vulgaris” value was 50 µg/mL. Further, the “MIC (μg/mL) S. marcescens” value against Serratia marcescens was 12.5 µg/mL.

The values above are taken from patent US9833497B2, “Human originated EGF domain proteins and use of the same” (CHENGDU SOURCEBIO LIMITED-LIABILITY COMPANY, priority 2013, dated 2017).
